In ChEMBL document CHEMBL4219066, “Identification and Mitigation of Reactive Metabolites of 2-Aminoimidazole-Containing Microsomal Prostaglandin E Synthase-1 Inhibitors Terminated Due to Clinical Drug-Induced Liver Injury” (J Med Chem, 2018):
Each block holds one molecule with its values, some of them ahead of it.

Tests used:
[1] = In vivo drug metabolism in human plasma assessed as 2-(difluoromethyl)-5-((3-hydroxy-2-methylpropanamido)methyl)-N-(4-methyl-5-(4-(trifluoromethyl)phenyl)-1H-imidazol-2-yl)nicotinamide formation HPLC-MS analysis; assay type: ADME, organism-based
[2] = Drug metabolism in Sprague-Dawley rat plasma assessed as 2-(difluoromethyl)-5-((2-hydroxy-2-methylpropanamido)methyl)-N-(4-methyl-5-(4-(trifluoromethyl)phenyl)-1H-imidazol-2-yl)nicotinamide formation at 1000 mg/kg, po measured after 2 hrs post dose by LC/MS analysis; assay type: ADME, organism-based; conditions: in vivo
[3] = Drug metabolism in rat hepatocytes assessed as 2-(difluoromethyl)-5-((3-hydroxy-2-methylpropanamido)methyl)-N-(4-methyl-5-(4-(trifluoromethyl)phenyl)-1H-imidazol-2-yl)nicotinamide formation at 2 uM after 4 hrs by LC-MS/MS analysis; assay type: ADME, cell-based, Hepatocyte
[4] = Drug metabolism in human hepatocytes assessed as 4-methyl-5-(4-(trifluoromethyl)phenyl)-1H-imidazol-2-amine formation at 2 uM after 4 hrs by LC-MS/MS analysis; assay type: ADME, cell-based, Hepatocyte
[5] = Drug metabolism in Beagle dog plasma assessed as 2-(difluoromethyl)-5-((2-hydroxy-2-methylpropanamido)methyl)-N-(4-methyl-5-(4-(trifluoromethyl)phenyl)-1H-imidazol-2-yl)nicotinamide formation at 300 to 600 mg/kg, po measured after 2 hrs post dose by LC/MS analysis; assay type: ADME, organism-based, Canis lupus familiaris; conditions: in vivo
[6] = In vivo drug metabolism in human plasma assessed as 2-(difluoromethyl)-5-(methacrylamidomethyl)-N-(4-methyl-5-(4-(trifluoromethyl)phenyl)-1H-imidazol-2-yl)nicotinamide formation HPLC-MS analysis; assay type: ADME, organism-based
[7] = In vivo drug metabolism in human urine assessed as 5-(aminomethyl)-2-(difluoromethyl)-N-(4-methyl-5-(4-(trifluoromethyl)phenyl)-1H-imidazol-2-yl)nicotinamide formation by HPLC-MS analysis; assay type: ADME, organism-based
[8] = In vivo drug metabolism in human urine assessed as 2-(difluoromethyl)-5-((2-hydroxy-2-methylpropanamido)methyl)-N-(4-methyl-5-(4-(trifluoromethyl)phenyl)-1H-imidazol-2-yl)nicotinamide formation by HPLC-MS analysis; assay type: ADME, organism-based
[9] = Drug metabolism in Beagle dog plasma assessed as 2-(difluoromethyl)-5-((3-hydroxy-2-methylpropanamido)methyl)-N-(4-methyl-5-(4-(trifluoromethyl)phenyl)-1H-imidazol-2-yl)nicotinamide formation at 300 to 600 mg/kg, po measured after 2 hrs post dose by LC/MS analysis; assay type: ADME, organism-based, Canis lupus familiaris; conditions: in vivo
[10] = Drug metabolism in human hepatocytes assessed as N-carbamimidoyl-2-(difluoromethyl)-5-(isobutyramidomethyl)nicotinamide formation at 2 uM after 4 hrs by LC-MS/MS analysis; assay type: ADME, cell-based, Hepatocyte
[11] = In vivo drug metabolism in human urine assessed as 2-(difluoromethyl)-5-((3-hydroxy-2-methylpropanamido)methyl)-N-(4-methyl-5-(4-(trifluoromethyl)phenyl)-1H-imidazol-2-yl)nicotinamide formation by HPLC-MS analysis; assay type: ADME, organism-based
[12] = Drug metabolism in human liver microsomes assessed as metabolite M7 formation at 2 uM in presence of 1:1 ratio of unlabeled GSH and [glycine 13C2,15N]-labelled GSH after 0.5 hrs by HPLC-MS analysis; assay type: ADME, microsome
[13] = Drug metabolism in Sprague-Dawley rat plasma assessed as 2-(difluoromethyl)-5-((3-hydroxy-2-methylpropanamido)methyl)-N-(4-methyl-5-(4-(trifluoromethyl)phenyl)-1H-imidazol-2-yl)nicotinamide formation at 1000 mg/kg, po measured after 2 hrs post dose by LC/MS analysis; assay type: ADME, organism-based; conditions: in vivo
[14] = Drug metabolism in Sprague-Dawley rat plasma assessed as 4-methyl-5-(4-(trifluoromethyl)phenyl)-1H-imidazol-2-amine formation at 1000 mg/kg, po measured after 2 hrs post dose by LC/MS analysis; assay type: ADME, organism-based; conditions: in vivo
[15] = Drug metabolism in rat hepatocytes assessed as metabolite M7 formation at 2 uM after 4 hrs by LC-MS/MS analysis; assay type: ADME, cell-based, Hepatocyte
[16] = Drug metabolism in dog hepatocytes assessed as 2-(difluoromethyl)-5-((2-hydroxy-2-methylpropanamido)methyl)-N-(4-methyl-5-(4-(trifluoromethyl)phenyl)-1H-imidazol-2-yl)nicotinamide formation at 2 uM after 4 hrs by LC-MS/MS analysis; assay type: ADME, cell-based, Canis lupus familiaris, Hepatocyte
[17] = Drug metabolism in human liver microsomes assessed as metabolite M9 formation at 2 uM in presence of 1:1 ratio of unlabeled GSH and [glycine 13C2,15N]-labelled GSH after 0.5 hrs by HPLC-MS analysis; assay type: ADME, microsome
[18] = Drug metabolism in rat hepatocytes assessed as N-carbamimidoyl-2-(difluoromethyl)-5-(isobutyramidomethyl)nicotinamide formation at 2 uM after 4 hrs by LC-MS/MS analysis; assay type: ADME, cell-based, Hepatocyte
[19] = Drug metabolism in rat hepatocytes assessed as 2-(difluoromethyl)-5-(methacrylamidomethyl)-N-(4-methyl-5-(4-(trifluoromethyl)phenyl)-1H-imidazol-2-yl)nicotinamide formation at 2 uM after 4 hrs by LC-MS/MS analysis; assay type: ADME, cell-based, Hepatocyte
[20] = In vivo drug metabolism in human urine assessed as N-carbamimidoyl-2-(difluoromethyl)-5-(isobutyramidomethyl)nicotinamide formation by HPLC-MS analysis; assay type: ADME, organism-based
[21] = Drug metabolism in dog hepatocytes assessed as N-carbamimidoyl-2-(difluoromethyl)-5-(isobutyramidomethyl)nicotinamide formation at 2 uM after 4 hrs by LC-MS/MS analysis; assay type: ADME, cell-based, Canis lupus familiaris, Hepatocyte
[22] = Drug metabolism in human hepatocytes assessed as 2-(difluoromethyl)-5-((3-hydroxy-2-methylpropanamido)methyl)-N-(4-methyl-5-(4-(trifluoromethyl)phenyl)-1H-imidazol-2-yl)nicotinamide formation at 2 uM after 4 hrs by LC-MS/MS analysis; assay type: ADME, cell-based, Hepatocyte
[23] = Drug metabolism in rat hepatocytes assessed as 2-(difluoromethyl)-5-((2-hydroxy-2-methylpropanamido)methyl)-N-(4-methyl-5-(4-(trifluoromethyl)phenyl)-1H-imidazol-2-yl)nicotinamide formation at 2 uM after 4 hrs by LC-MS/MS analysis; assay type: ADME, cell-based, Hepatocyte
[24] = Drug metabolism in Sprague-Dawley rat plasma assessed as 5-(aminomethyl)-2-(difluoromethyl)-N-(4-methyl-5-(4-(trifluoromethyl)phenyl)-1H-imidazol-2-yl)nicotinamide formation at 1000 mg/kg, po measured after 2 hrs post dose by LC/MS analysis; assay type: ADME, organism-based; conditions: in vivo
[25] = Drug metabolism in human hepatocytes assessed as metabolite M7 formation at 2 uM after 4 hrs by LC-MS/MS analysis; assay type: ADME, cell-based, Hepatocyte
[26] = Drug metabolism in rat hepatocytes assessed as 4-methyl-5-(4-(trifluoromethyl)phenyl)-1H-imidazol-2-amine formation at 2 uM after 4 hrs by LC-MS/MS analysis; assay type: ADME, cell-based, Hepatocyte
[27] = In vivo drug metabolism in human plasma assessed as 2-(difluoromethyl)-5-((2-hydroxy-2-methylpropanamido)methyl)-N-(4-methyl-5-(4-(trifluoromethyl)phenyl)-1H-imidazol-2-yl)nicotinamide formation HPLC-MS analysis; assay type: ADME, organism-based
[28] = Drug metabolism in human hepatocytes assessed as 2-(difluoromethyl)-5-((2-hydroxy-2-methylpropanamido)methyl)-N-(4-methyl-5-(4-(trifluoromethyl)phenyl)-1H-imidazol-2-yl)nicotinamide formation at 2 uM after 4 hrs by LC-MS/MS analysis; assay type: ADME, cell-based, Hepatocyte
[29] = Drug metabolism in Beagle dog plasma assessed as 4-methyl-5-(4-(trifluoromethyl)phenyl)-1H-imidazol-2-amine formation at 300 to 600 mg/kg, po measured after 2 hrs post dose by LC/MS analysis; assay type: ADME, organism-based, Canis lupus familiaris; conditions: in vivo
[30] = Drug metabolism in human hepatocytes assessed as 2-chloro-N-(4-cyano-1H-imidazol-2-yl)-5-((3-hydroxy-2,2-dimethylpropanamido)methyl)benzamide formation at 2 uM after 4 hrs by LC-MS/MS analysis; assay type: ADME, cell-based, Hepatocyte
[31] = Drug metabolism in rat hepatocytes assessed as 2-chloro-N-(4-cyano-1H-imidazol-2-yl)-5-((3-hydroxy-2,2-dimethylpropanamido)methyl)benzamide formation at 2 uM after 4 hrs by LC-MS/MS analysis; assay type: ADME, cell-based, Hepatocyte
[32] = Drug metabolism in rat hepatocytes assessed as 2-(2-chloro-5-((3-hydroxy-2,2-dimethylpropanamido)methyl)benzamido)-N-phenyl-1H-imidazole-4-carboxamide at 2 uM after 4 hrs by LC-MS/MS analysis; assay type: ADME, cell-based, Hepatocyte
[33] = Drug metabolism in human hepatocytes assessed as 2-(2-chloro-5-((3-hydroxy-2,2-dimethylpropanamido)methyl)benzamido)-N-phenyl-1H-imidazole-4-carboxamide formation at 2 uM after 4 hrs by LC-MS/MS analysis; assay type: ADME, cell-based, Hepatocyte
[34] = Drug metabolism in rat hepatocytes assessed as metabolite M2 formation at 2 uM after 4 hrs by LC-MS/MS analysis; assay type: ADME, cell-based, Hepatocyte
[35] = Drug metabolism in human hepatocytes assessed as 2-(2-chloro-5-(pivalamidomethyl)benzamido)-1H-imidazole-4-carboxylic acid formation at 2 uM after 4 hrs by LC-MS/MS analysis; assay type: ADME, cell-based, Hepatocyte
[36] = Drug metabolism in rat hepatocytes assessed as 2-chloro-5-(pivalamidomethyl)benzoic acid formation at 2 uM after 4 hrs by LC-MS/MS analysis; assay type: ADME, cell-based, Hepatocyte
[37] = Drug metabolism in human hepatocytes assessed as 2-chloro-5-(pivalamidomethyl)benzoic acid formation at 2 uM after 4 hrs by LC-MS/MS analysis; assay type: ADME, cell-based, Hepatocyte
[38] = Drug metabolism in rat hepatocytes assessed as 2-(2-chloro-5-(pivalamidomethyl)benzamido)-1H-imidazole-4-carboxylic acid formation at 2 uM after 4 hrs by LC-MS/MS analysis; assay type: ADME, cell-based, Hepatocyte
[39] = Drug metabolism in human hepatocytes assessed as metabolite M2 formation at 2 uM after 4 hrs by LC-MS/MS analysis; assay type: ADME, cell-based, Hepatocyte

- Drug metabolism [1]: Metabolite_Detected
- Drug metabolism [2]: Metabolite_Detected
- Drug metabolism [3]: Metabolite_Detected
- Drug metabolism [4]: Metabolite_Detected
- Drug metabolism [5]: Metabolite_Detected
- Drug metabolism [6]: Metabolite_Detected
- Drug metabolism [7]: Metabolite_Detected
- Drug metabolism [8]: Metabolite_Detected
- Drug metabolism [9]: Metabolite_Detected
- Drug metabolism [10]: Metabolite_Detected
- Drug metabolism [11]: Metabolite_Detected
- Drug metabolism [12]: Metabolite_Detected
- Drug metabolism [13]: Metabolite_Detected
- Drug metabolism [14]: Metabolite_Detected
- Drug metabolism [15]: Metabolite_Detected
- Drug metabolism [16]: Metabolite_Detected
- Drug metabolism [17]: Metabolite_Detected
- Drug metabolism [18]: Metabolite_Detected
- Drug metabolism [19]: Metabolite_Detected
- Drug metabolism [20]: Metabolite_Detected
- Drug metabolism [21]: Metabolite_Detected
- Drug metabolism [22]: Metabolite_Detected
- Drug metabolism [23]: Metabolite_Detected
- Drug metabolism [24]: Metabolite_Detected
- Drug metabolism [25]: Metabolite_Detected
- Drug metabolism [26]: Metabolite_Detected
- Drug metabolism [27]: Metabolite_Detected
- Drug metabolism [28]: Metabolite_Detected
- Drug metabolism [29]: Metabolite_Detected
Structure (SMILES): Cc1nc(NC(=O)c2cc(CNC(=O)C(C)C)cnc2C(F)F)[nH]c1-c1ccc(C(F)(F)F)cc1

- Drug metabolism [30]: Metabolite_Detected
- Drug metabolism [31]: Metabolite_Detected
Structure (SMILES): CC(C)(C)C(=O)NCc1ccc(Cl)c(C(=O)Nc2nc(C#N)c[nH]2)c1

- Drug metabolism [32]: Metabolite_Detected
- Drug metabolism [33]: Metabolite_Detected
- Drug metabolism [34]: Metabolite_Detected
- Drug metabolism [35]: Metabolite_Detected
- Drug metabolism [36]: Metabolite_Detected
- Drug metabolism [37]: Metabolite_Detected
- Drug metabolism [38]: Metabolite_Detected
- Drug metabolism [39]: Metabolite_Detected
Structure (SMILES): CC(C)(C)C(=O)NCc1ccc(Cl)c(C(=O)Nc2nc(C(=O)Nc3ccccc3)c[nH]2)c1
